Counter-ions that a name gives are not always drawn.
Tested on: Acinetobacter baumannii ATCC17978
Test: Antimicrobial susceptibility testing, 90% growth inhibitory concentration (IC90) determination, ATCC17978
Type: cell-based
Settings: Iso-Sensitest broth, OD 600 nm over 16 h, 35±2° C., read-out: ATCC 17978 IC90
Method: Antimicrobial Susceptibility Testing: 90% Growth Inhibitory Concentration (IC90) Determination The in vitro antimicrobial activity of the compounds was determined according to the following procedure: The assay used a 10-points Iso-Sensitest broth medium to measure quantitatively the in vitro activity of the compounds against Acinetobacter baumannii ATCC17978 or ATCC17961. Stock compounds in DMSO were serially twofold diluted (e.g. range from 50 to 0.097 μM final concentration) in 384 wells microtiter plates and inoculated with 49 μl the bacterial suspension in Iso-Sensitest medium to have a final cell concentration of ˜5×10^(5) CFU/ml in a final volume/well of 50 ul/well. Microtiter plates were incubated at 35±2° C. Bacterial cell growth was determined with the measurement of optical density at X=600 nm each 20 minutes over a time course of 16 h. Growth inhibition was calculated during the logarithmic growth of the bacterial cells with determination of the concentration inhibiting 50% (IC50) and 90% (IC90) of the growth. Table 1 provides the 90% growth inhibitory concentrations (IC90) in micromoles per liter of the compounds of present invention obtained against the strain Acinetobacter baumannii ATCC17978.

| IC90 [nM] | Compound |
| --- | --- |
| 3000 | CCc1cc(NC(=O)c2ncc(-c3ccc(OC(F)F)cc3)n2C)ccc1C(=O)NCCOCCN [Example A14, N-[4-[2-(2-aminoethoxy)ethylcarbamoyl]-3-ethyl-phenyl]-5-[4-(difluoromethoxy)phenyl]-1-methyl-imidazole-2-carboxamide;hydrochloride] |
| 280 | COc1ccc(-c2cnc(C(=O)Nc3ccc(C(=O)NC4CCN(C(=O)[C@@H]5C[C@@H](O)CN5)C4)c(Cl)c3)n2C)c(F)c1F (stereo partly drawn) [Example B3, N-[3-chloro-4-[[1-[(2S,4R)-4-hydroxypyrrolidine-2-carbonyl]pyrrolidin-3-yl]carbamoyl]phenyl]-5-(2,3-difluoro-4-methoxy-phenyl)-1-methyl-imidazole-2-carboxamide;formic acid] |
| 1200 | CCc1cc(NC(=O)c2ncc(-c3c(F)cc(OC)cc3F)n2C)ccc1C(=O)NCCOCCN [Example A18, N-[4-[2-(2-aminoethoxy)ethylcarbamoyl]-3-ethyl-phenyl]-5-(2,6-difluoro-4-methoxy-phenyl)-1-methyl-imidazole-2-carboxamide;hydrochloride] |
| 250 | Cn1c(-c2ccc(OCC#N)c(F)c2F)cnc1C(=O)Nc1ccc(C(=O)NCCOCCN)c(Cl)c1 [Example A9, N-[4-[2-(2-aminoethoxy)ethylcarbamoyl]-3-chloro-phenyl]-5-[4-(cyanomethoxy)-2,3-difluoro-phenyl]-1-methyl-imidazole-2-carboxamide;formic acid] |
| 1100 | CC[C@]1(O)CN[C@@H](C(=O)NCCNC(=O)c2ccc(NC(=O)c3ncc(-c4ccc(OC)c(F)c4F)n3C)cc2C)C1 [Example B27, 5-(2,3-difluoro-4-methoxy-phenyl)-N-[4-[2-[[(2R,4R)-4-ethyl-4-hydroxy-pyrrolidine-2-carbonyl]amino]ethylcarbamoyl]-3-methyl-phenyl]-1-methyl-imidazole-2-carboxamide;formic acid] |
| 1100 | Cn1c(-c2ccc(OCC#N)c(F)c2F)cnc1C(=O)Nc1ccc(C(=O)NCCNC(=O)[C@H]2CCNC[C@H]2O)c(Cl)c1 [Example B33, (3S,4S)-N-[2-[[2-chloro-4-[[5-[4-(cyanomethoxy)-2,3-difluoro-phenyl]-1-methyl-imidazole-2-carbonyl]amino]benzoyl]amino]ethyl]-3-hydroxy-piperidine-4-carboxamide;formic acid] |
| 100 | COc1ccc(-c2cnc(C(=O)Nc3ccc(C(=O)NC4CCN(C(=O)[C@@H]5CCNC5)CC4)c(Cl)c3)n2C)c(F)c1F [Example B6, N-[3-chloro-4-[[1-[(3R)-pyrrolidine-3-carbonyl]-4-piperidyl]carbamoyl]phenyl]-5-(2,3-difluoro-4-methoxy-phenyl)-1-methyl-imidazole-2-carboxamide;formic acid] |
| 130 | COc1ccc(-c2cnc(C(=O)Nc3ccc(C(=O)N[C@H]4C[C@@H](NC(=O)[C@@H]5CCNC[C@@H]5O)C4)c(Cl)c3)n2C)c(F)c1F [Example B41, (3R,4R)-N-[3-[[2-chloro-4-[[5-(2,3-difluoro-4-methoxy-phenyl)-1-methyl-imidazole-2-carbonyl]amino]benzoyl]amino]cyclobutyl]-3-hydroxy-piperidine-4-carboxamide;formic acid] |
| 200 | COc1ccc(-c2cnc(C(=O)Nc3ccc(C(=O)NCCCCCN(C)C)c(Cl)c3)n2C)c(F)c1F [Example A26, N-[3-chloro-4-[5-(dimethylamino)pentylcarbamoyl]phenyl]-5-(2,3-difluoro-4-methoxy-phenyl)-1-methyl-imidazole-2-carboxamide] |
| 990 | Cc1cc(NC(=O)c2ncc(-c3ccc(OCC#N)c(F)c3F)n2C)ccc1C(=O)NCCNC(=O)C1(O)CCNCC1 [Example B14, N-[2-[[4-[[5-[4-(cyanomethoxy)-2,3-difluoro-phenyl]-1-methyl-imidazole-2-carbonyl]amino]-2-methyl-benzoyl]amino]ethyl]-4-hydroxy-piperidine-4-carboxamide;formic acid] |
